# Article PMC3970309 (Infection & Chemotherapy, 2014)
# Format: in vivo, human
# Conditions: percent; CLCr > 60 mg/dL (normal renal function), n = 22
substance,measurement,value
teicoplanin,Patients with plasma teicoplanin >10mg/L,63%
